Assay results as given in patent publication US11964973B2 (priority 2019, dated 2024).
Where two headings read alike, the source gives them in different places. Blank lines part the entries; values can stand above or below the compound they belong to.

Key:
[1] = system: human venous whole blood, CD8 positive population (pERK); assay: DGK human whole blood pERK assay; format: cell-based
Description: Assay 11: DGK Human Whole Blood pERK Assay
Human whole blood ERK phosphorylation assay was performed with human venous whole blood obtained from healthy donors (drawn with Heparin as anti-coagulant). […] Heparinized human whole blood was added to the compound plate at 9 μL per well and incubated for one hour at 37° C. in a humidified 95%, air/5% CO2 incubator. After one hour of compound incubation, 1 μL of human anti-CD3 antibody (in-house) in the presence of cross-linking antibody goat anti-mouse IgG (4 μg/mL) was added to the well at 1 μg/mL final concentration for stimulation of pathway and additionally incubated for 15 minutes at 37° C. […] Samples analyzed using the Intellicyt® iQue Screener PLUS. The pERK activation was quantitated by the percentage of pERK positive population within CD8 positive population.

human DGKζ = human DGKζ (Homo sapiens (Human), UniProt Q13574); assay: biochemical; format: biochemical; details: liposome (LIPGLO) assay
Sequence of human DGKζ (Q13574 whole entry, looked up): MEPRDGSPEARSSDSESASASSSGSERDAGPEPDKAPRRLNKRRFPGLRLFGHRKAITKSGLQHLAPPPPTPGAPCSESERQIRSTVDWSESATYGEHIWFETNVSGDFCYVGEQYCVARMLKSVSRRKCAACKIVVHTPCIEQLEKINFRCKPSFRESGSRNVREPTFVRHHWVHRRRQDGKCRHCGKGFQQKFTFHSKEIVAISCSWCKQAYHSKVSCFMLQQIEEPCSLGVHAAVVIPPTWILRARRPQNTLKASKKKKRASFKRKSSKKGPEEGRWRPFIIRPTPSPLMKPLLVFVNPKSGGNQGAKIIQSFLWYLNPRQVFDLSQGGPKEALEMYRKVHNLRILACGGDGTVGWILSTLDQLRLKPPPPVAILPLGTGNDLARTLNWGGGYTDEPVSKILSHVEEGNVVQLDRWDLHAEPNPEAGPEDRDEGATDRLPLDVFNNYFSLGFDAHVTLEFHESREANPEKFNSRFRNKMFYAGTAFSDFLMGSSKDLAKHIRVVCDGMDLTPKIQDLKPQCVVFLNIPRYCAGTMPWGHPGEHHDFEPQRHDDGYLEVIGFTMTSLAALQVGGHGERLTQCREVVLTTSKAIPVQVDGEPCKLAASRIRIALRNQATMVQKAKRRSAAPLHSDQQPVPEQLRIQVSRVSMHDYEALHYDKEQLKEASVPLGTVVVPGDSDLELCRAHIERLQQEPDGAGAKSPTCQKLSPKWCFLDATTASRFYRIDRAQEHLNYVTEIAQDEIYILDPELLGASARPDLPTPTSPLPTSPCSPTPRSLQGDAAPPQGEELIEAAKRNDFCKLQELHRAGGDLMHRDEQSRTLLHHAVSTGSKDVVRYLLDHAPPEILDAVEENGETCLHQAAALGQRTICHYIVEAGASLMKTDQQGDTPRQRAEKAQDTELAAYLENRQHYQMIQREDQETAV

[2] = system: Human venous whole blood (IFN-γ); assay: Human whole blood IFN-γ assay; format: cell-based
Description: Assay 10: Human Whole Blood IFN-γ Assay
Human venous whole blood (22.5 μL per well), obtained from healthy donors, was pre-treated with compounds for one hour at 37° C. in a humidified 95% air/5% CO2 incubator. The blood was stimulated with 2.5 μL anti-human CD3 and anti-CD28 mAb at a final concentration of 1 μg/mL each for 24 hours at 37° C. IFN-γ in the supernatants was measured using AlphLISA kit (Cat #AL217).

[3] = Homo sapiens, CD8 positive, read-out: DGK HWB, human whole blood pERK
[4] = Homo sapiens, CD8 positive, human whole blood pERK, read-out: DGK HWB
[5] = human whole blood pERK, read-out: DGK HWB
[6] = Homo sapiens, human whole blood IFN-γ, read-out: INFg Whole Blood
[7] = read-out: INFg Whole Blood, human whole blood IFN-γ

Compound: CC(C)Oc1ccc(OC2C[C@H](C)N(c3nc(=O)n(C)c4ccc(C#N)nc34)C[C@@H]2C)nc1 (mixture of isomers) [Example 243, (±)-Cis-(-4-((5-isopropoxypyridin-2-yl)oxy)-2,5-dimethylpiperidin-1-yl)-1-methyl-2-oxo-1,2-dihydropyrido[3,2-d]pyrimidine-6-carbonitrile]
EC50 [1, 3]: 590 nM

Compound: CCO[C@H]1CN(c2cc(=O)n(C)c3ccc(C#N)nc23)CC[C@@H]1Oc1ccccc1 (relative stereo) [Example 341, trans-8-(3-Ethoxy-4-phenoxypiperidin-1-yl)-5-methyl-6-oxo-5,6-dihydro-1,5-naphthyridine-2-carbonitrile]
EC50 [1, 4]: 590 nM

Compound: CCO[C@H]1CN(c2cc(=O)n(C)c3ccc(C#N)nc23)CC[C@@H]1Oc1ccccc1 (relative stereo) [Example 342, trans-8-(3-Ethoxy-4-phenoxypiperidin-1-yl)-5-methyl-6-oxo-5,6-dihydro-1,5-naphthyridine-2-carbonitrile]
EC50 [1, 5]: 840 nM

Compound: CCO[C@H]1CN(c2cc(=O)n(C)c3ccc(C#N)nc23)CC[C@@H]1Oc1cccc(C(F)(F)F)n1 (relative stereo) [Example 363, trans-8-(3-Ethoxy-4-((6-(trifluoromethyl)pyridin-2-yl)oxy)piperidin-1-yl)-5-methyl-6-oxo-5,6-dihydro-1,5-naphthyridine-2-carbonitrile]
EC50 [1, 5]: 1100 nM

Compound: CCO[C@H]1CN(c2cc(=O)n(C)c3ccc(C#N)nc23)CC[C@@H]1Oc1cccc(C(F)(F)F)n1 (relative stereo) [Example 364, trans-8-(3-Ethoxy-4-((6-(trifluoromethyl)pyridin-2-yl)oxy)piperidin-1-yl)-5-methyl-6-oxo-5,6-dihydro-1,5-naphthyridine-2-carbonitrile]
EC50 [1, 5]: 20000 nM

EC50 [1, 3]: 640 nM
Compound: CCO[C@H]1CN(c2cc(=O)n(C)c3ccc(C#N)nc23)CC[C@@H]1Oc1ccc(C(F)(F)F)cn1 (relative stereo) [Example 367, trans-8-(3-Ethoxy-4-((5-(trifluoromethyl)pyridin-2-yl)oxy)piperidin-1-yl)-5-methyl-6-oxo-5,6-dihydro-1,5-naphthyridine-2-carbonitrile]

Compound: CCO[C@H]1CN(c2cc(=O)n(C)c3ccc(C#N)nc23)CC[C@H]1Oc1cccc(C(F)(F)F)c1 (relative stereo) [Example 369, cis-8-(3-Ethoxy-4-(3-(trifluoromethyl)phenoxy)piperidin-1-yl)-5-methyl-6-oxo-5,6-dihydro-1,5-naphthyridine-2-carbonitrile]
EC50 [1, 4]: 620 nM

Compound: CCO[C@H]1CN(c2cc(=O)n(C)c3ccc(C#N)nc23)CC[C@H]1Oc1ccc(OC(C)C)cn1 (relative stereo) [Example 371, cis-8-(3-Ethoxy-4-((5-isopropoxypyridin-2-yl)oxy)piperidin-1-yl)-5-methyl-6-oxo-5,6-dihydro-1,5-naphthyridine-2-carbonitrile]
EC50 [1, 5]: 3600 nM

Compound: CCO[C@H]1CN(c2cc(=O)n(C)c3ccc(C#N)nc23)CC[C@H]1Oc1ccc(OC(C)C)cn1 (relative stereo) [Example 372, cis-8-(3-Ethoxy-4-((5-isopropoxypyridin-2-yl)oxy)piperidin-1-yl)-5-methyl-6-oxo-5,6-dihydro-1,5-naphthyridine-2-carbonitrile]
EC50 [1, 5]: 18000 nM

Compound: CCO[C@H]1CN(c2cc(=O)n(C)c3ccc(C#N)nc23)CC[C@@H]1Oc1ccc(OC(C)C)cn1 (relative stereo) [Example 397, trans-8-(4-((5-Isopropoxypyridin-2-yl)oxy)-3-ethoxypiperidin-1-yl)-5-methyl-6-oxo-5,6-dihydro-1,5-naphthyridine-2-carbonitrile]
EC50 ([1]; human whole blood, CD8 positive population, anti-CD3 stimulation, top concentration 20 μM, read-out: DGK HWB (human whole blood pERK)): 140 nM

Compound: Cn1c(=O)nc(N2CC[C@@H](Oc3cccc(C(F)(F)F)c3)[C@H](O)C2)c2nc(C#N)ccc21 (single isomer, unassigned) [Example 273, (+/−)-trans-4-(3-hydroxy-4-(3-(trifluoromethyl)phenoxy)piperidin-1-yl)-1-methyl-2-oxo-1,2-dihydropyrido[3,2-d]pyrimidine-6-carbonitrile]
IC50 (human DGKζ; Table A, read-out: DGKζ): 4700 nM

EC50 [1, 3]: 20000 nM
Compound: CC1CN(c2c(C#N)c(=O)n(C)c3ccc(C#N)nc23)CCC1N(C)C(=O)c1ccc(C(F)(F)F)cc1 (single isomer, unassigned) [Example 292, N-(1-(3,6-dicyano-1-methyl-2-oxo-1,2-dihydro-1,5-naphthyridin-4-yl)-3-methylpiperidin-4-yl)-N-methyl-4-(trifluoromethyl)benzamide]

Compound: CC[C@@H]1CN(c2cc(=O)n(C)c3ccc(C#N)nc23)CC[C@H]1Oc1ccc(OC(C)C)cc1 [Example 161, 8-((3R,4R)-3-ethyl-4-(4-isopropoxyphenoxy)piperidin-1-yl)-5-methyl-6-oxo-5,6-dihydro-1,5-naphthyridine-2-carbonitrile]
IC50 (human DGKζ; read-out: DGKζ LIPGLO IC50): 540 nM | EC50 ([2]; Homo sapiens, 24 h, human whole blood, anti-CD3 plus anti-CD28, 24 hours, read-out: INFg Whole Blood Normalized Agonist EC50): 2400 nM

Compound: CC[C@@H]1CN(c2cc(=O)n(C)c3ccc(C#N)nc23)CC[C@H]1Oc1ccc(OC(C)C)cn1 [Example 192, 8-((3R,4R)-3-ethyl-4-((5-isopropoxypyridin-2-yl)oxy)piperidin-1-yl)-5-methyl-6-oxo-5,6-dihydro-1,5-naphthyridine-2-carbonitrile]
IC50 (human DGKζ; Table A, read-out: DGKζ): 420 nM | EC50 [2, 6]: 290 nM

Compound: CC[C@@H]1CN(c2cc(=O)n(C)c3ccc(C#N)nc23)CC[C@@H]1Oc1ccc(OC(C)C)cn1 [Example 203, 8-((3R,4S)-3-ethyl-4-((5-isopropoxypyridin-2-yl)oxy)piperidin-1-yl)-5-methyl-6-oxo-5,6-dihydro-1,5-naphthyridine-2-carbonitrile]
IC50 (human DGKζ; Table A, read-out: DGKζ): 230 nM

Compound: CC[C@@H]1CN(c2cc(=O)n(C)c3ccc(C#N)nc23)CC[C@@H]1Oc1ccc(OC(C)C)cn1 [Example 204, 8-((3R,4S)-3-ethyl-4-((5-isopropoxypyridin-2-yl)oxy)piperidin-1-yl)-5-methyl-6-oxo-5,6-dihydro-1,5-naphthyridine-2-carbonitrile]
IC50 (human DGKζ; Table A, read-out: DGKζ): 330 nM

Compound: C[C@@H]1CN(c2cc(=O)n(C)c3ccc(C#N)nc23)CC[C@@H]1Oc1ncccn1 [Example 217, 5-methyl-8-((3R,4S)-3-methyl-4-(pyrimidin-2-yloxy)piperidin-1-yl)-6-oxo-5,6-dihydro-1,5-naphthyridine-2-carbonitrile]
EC50 [2, 6]: 20000 nM

Compound: COc1ccnc(O[C@H]2CCN(c3cc(=O)n(C)c4ccc(C#N)nc34)C[C@H]2C)n1 [Example 218, 8-((3R,4S)-4-((4-methoxypyrimidin-2-yl)oxy)-3-methylpiperidin-1-yl)-5-methyl-6-oxo-5,6-dihydro-1,5-naphthyridine-2-carbonitrile]
EC50 [2, 6]: 20000 nM

Compound: C[C@@H]1CN(c2cc(=O)n(C)c3ccc(C#N)nc23)CC[C@@H]1Oc1ncc(C(F)(F)F)cn1 [Example 222, 5-methyl-8-((3R,4S)-3-methyl-4-((5-(trifluoromethyl)pyrimidin-2-yl)oxy)piperidin-1-yl)-6-oxo-5,6-dihydro-1,5-naphthyridine-2-carbonitrile]
EC50 [2, 6]: 3900 nM

Compound: C[C@@H]1CN(c2cc(=O)n(C)c3ccc(C#N)nc23)CC[C@@H]1Oc1ncc(C2CC2)cn1 [Example 223, 8-((3R,4S)-4-((5-cyclopropylpyrimidin-2-yl)oxy)-3-methylpiperidin-1-yl)-5-methyl-6-oxo-5,6-dihydro-1,5-naphthyridine-2-carbonitrile]
EC50 [2, 6]: 17000 nM

Compound: C[C@@H]1CN(c2cc(=O)n(C)c3ccc(C#N)nc23)CC[C@@H]1Oc1ccc(C2CC2)cn1 [Example 224, 8-((3R,4S)-4-((5-cyclopropylpyridin-2-yl)oxy)-3-methylpiperidin-1-yl)-5-methyl-6-oxo-5,6-dihydro-1,5-naphthyridine-2-carbonitrile]
EC50 [2, 6]: 5800 nM

Compound: C[C@@H]1CN(c2cc(=O)n(C)c3ccc(C#N)nc23)CC[C@@H]1Oc1ccc(C(F)(F)F)cn1 [Example 225, 5-methyl-8-((3R,4S)-3-methyl-4-((5-(trifluoromethyl)pyridin-2-yl)oxy)piperidin-1-yl)-6-oxo-5,6-dihydro-1,5-naphthyridine-2-carbonitrile]
EC50 [2, 6]: 1800 nM

EC50 [2, 7]: 640 nM
Compound: CCO[C@@H]1CN(c2nc(=O)n(C)c3ccc(C#N)nc23)CC[C@H]1Oc1cccc(C(F)(F)F)c1 [Example 278, 4-((3R,4R)-3-ethoxy-4-(3-(trifluoromethyl)phenoxy)piperidin-1-yl)-1-methyl-2-oxo-1,2-dihydropyrido[3,2-d]pyrimidine-6-carbonitrile]

EC50 [2, 7]: 8700 nM
Compound: CCO[C@@H]1CN(c2nc(=O)n(C)c3ccc(C#N)nc23)CC[C@H]1Oc1cccc(C(F)(F)F)c1 [Example 279, 4-((3R,4R)-3-ethoxy-4-(3-(trifluoromethyl)phenoxy)piperidin-1-yl)-1-methyl-2-oxo-1,2-dihydropyrido[3,2-d]pyrimidine-6-carbonitrile]
